From patent US8012983B2, “Substituted triazolopyrazines useful for the treatment of degenerative and inflammatory diseases” (Galapagos NV, priority 2008, dated 2011)

Molecular target: T1, MAPKAPK5 (Homo sapiens, UniProt Q8IW41)
T1 sequence (Q8IW41 1-471 isoform Q8IW41-2): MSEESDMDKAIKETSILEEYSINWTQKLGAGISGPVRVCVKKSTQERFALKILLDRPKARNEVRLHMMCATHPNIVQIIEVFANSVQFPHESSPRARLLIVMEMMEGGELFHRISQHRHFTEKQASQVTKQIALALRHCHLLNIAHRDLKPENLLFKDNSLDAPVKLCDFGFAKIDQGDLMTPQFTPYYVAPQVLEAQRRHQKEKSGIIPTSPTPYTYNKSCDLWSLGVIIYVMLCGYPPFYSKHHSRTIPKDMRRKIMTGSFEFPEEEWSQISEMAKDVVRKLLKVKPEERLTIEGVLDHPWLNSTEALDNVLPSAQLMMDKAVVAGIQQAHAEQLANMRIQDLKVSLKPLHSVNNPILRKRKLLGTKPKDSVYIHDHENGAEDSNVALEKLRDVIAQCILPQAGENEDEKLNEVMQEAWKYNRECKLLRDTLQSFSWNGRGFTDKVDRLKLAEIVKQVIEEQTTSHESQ
Test: MAPKAP-K5 FlashPlate kinase assay
Assay type: biochemical
Settings: 0.6 μM ATP, 30 minutes, room temperature
Description: MAPKAP-K5 reactions are performed in FlashPlate format using 0.1 or 0.2 μCi 33P-ATP; 0.6 μM ATP; 1 mU MAPKAP-K5; 3 μM MAPKAP-K5 peptide substrate, incubated at room temperature for 30 minutes.
The MAPKAP-K5 kinase reaction is performed in a 384 well polypropylene plate (Matrix Technologies) and then transferred to a streptavidin-coated 384 well flashplate (Perkin-Elmer). To wells containing 2 μL test compound or standard inhibitor, 13 μL Enzyme mix or diluent are added using a Hydra (Robbins Scientific). Reactions are started by addition of 10 μL of [2.5×] substrate cocktail using a Multidrop (Thermo-Labsystems), to give final concentrations in the assay of: • 1 mU MAPKAP-K5 • 3 μM MAPKAP-K5 peptide substrate • 0.6 μM ATP • 0.004 μCi [33P]-γ-ATP/μL • 1× reaction buffer
Plates are incubated at room temperature for 30 minutes. Reactions are terminated by the addition of 25 μL EDTA (50 mM) to each well using a Micro-fill (Biotek). Reactions are transferred to a streptavidin-coated flashplate using a Zymark robotic system. Plates are incubated for 60 minutes at room temperature. All wells are washed 3 times with 100 μl phosphate buffered saline using a Tecan plate washer. Radioactivity is determined by scintillation counting of the flashplate (empty wells) on a Packard TopCount.
Enzyme Mix: • Enzyme • 50 mM Tris Hcl (pH 7.5) • 0.1 mM EGTA • 2 mM DTT • 1 mg/mL BSA
Reaction Buffer: • 50 mM Tris Hcl (pH 7.5) • 0.1 mM EGTA • 10 mM Magnesium acetate • 2 mM DTT

Row | Structure (SMILES) | IC50 [nM]
1 | CC(C)N1C[C@@H]2C[C@H]1CN2c1ccc(Nc2ncc(-c3cc(C(N)=O)n[nH]3)n3ncnc23)cc1 [Compound 5, 5-{8-(4-((1S,4S)-5-isopropyl-2,5-diazabicyclo[2.2.1]heptan-2-yl)phenyl-amino)-[1,2,4]triazolo[1,5-a]pyrazin-5-yl}-1H-pyrazole-3-carboxamide] | 101 to 500
2 | CC(C)N1C[C@@H]2C[C@H]1CN2c1ccc(Nc2ncc(-c3ccc4c(c3)CNC4=O)n3ncnc23)cc1 [Compound 1, 5-{8-[4-((1S,4S)-5-Isopropyl-2,5-diaza-bicyclo[2.2.1]hept-2-yl)-phenylamino]-[1,2,4]triazolo[1,5-a]pyrazin-5-yl}-2,3-dihydro-isoindol-1-one] | 0.01 to 100
3 | CC(C)(C)N1C[C@@H]2C[C@H]1CN2c1ccc(Nc2ncc(-c3ccc4c(c3)CNC4=O)n3ncnc23)cc1 [Compound 16, 5-{8-(4-((1S,4S)-5-tert-butyl-2,5-diazabicyclo[2.2.1]heptan-2-yl)phenylamino)-[1,2,4]triazolo-[1,5-a]pyrazin-5-yl}-2,3-dihydro-isoindol-1-one] | 101 to 500
4 | CC(C)N1C[C@@H]2C[C@H]1CN2c1ccc(Nc2ncc(-c3cc(C(N)=O)n[nH]3)n3ncnc23)cn1 [Compound 15, 5-{8-(6-((1S,4S)-5-isopropyl-2,5-diazabicyclo[2.2.1]heptan-2-yl)pyridin-3-ylamino)-[1,2,4]triazolo[1,5-a]pyrazin-5-yl}-1H-pyrazole-3-carboxylic acid amide] | 101 to 500
5 | CCOC(=O)c1cc(-c2cnc(Nc3ccc(N4C[C@@H]5C[C@H]4CN5C(C)C)cc3)c3ncnn23)[nH]n1 [Compound 21, Ethyl 5-(8-(4-((1S,4S)-5-isopropyl-2,5-diazabicyclo[2.2.1]heptan-2-yl)phenylamino)-[1,2,4]triazolo[1,5-a]pyrazin-5-yl)-1H-pyrazole-3-carboxylate] | > 1000
6 | CC(C)N1C[C@@H]2C[C@H]1CN2c1ccc(Nc2ncc(-c3noc(C(N)=O)n3)n3ncnc23)cc1 [Compound 23, 3-(8-(4-((1S,4S)-5-isopropyl-2,5-diazabicyclo[2.2.1]heptan-2-yl)phenylamino)-[1,2,4]triazolo[1,5-a]pyrazin-5-yl)-1,2,4-oxadiazole-5-carboxamide] | > 1000
7 | CCOc1cc(-c2cnc(Nc3ccc(N4C[C@@H]5C[C@H]4CN5C(C)C)cc3)c3ncnn23)ccn1 [Compound 19, 5-(2-ethoxypyridin-4-yl)-N-(4-((1S,4S)-5-isopropyl-2,5-diazabicyclo[2.2.1]heptan-2-yl)phenyl)-[1,2,4]triazolo[1,5-a]pyrazin-8-amine] | > 1000
8 | CC(C)N1CC2CCC1CN2c1ccc(Nc2ncc(-c3coc(C(N)=O)c3)n3ncnc23)cc1 (stereo not shown) [Compound 9, 4-{8-(4-(5-isopropyl-2,5-diazabicyclo[2.2.2]octan-2-yl)phenylamino)[1,2,4]-triazolo[1,5-a]pyrazin-5-yl}-furan-2-carboxamide] | 0.01 to 100
9 | CC(C)N1C[C@@H]2C[C@H]1CN2c1ccc(Nc2ncc(-c3ccc4c(c3)CNC4=O)n3ncnc23)cn1 [Compound 18, 5-{8-(6-((1S,4S)-5-isopropyl-2,5-diazabicyclo[2.2.1]heptan-2-yl)pyridin-3-ylamino)-[1,2,4]triazolo[1,5-a]pyrazin-5-yl}-2,3-dihydro-isoindol-1-one] | 101 to 500
10 | CC(C)N1C[C@@H]2C[C@H]1CN2c1ccc(Nc2ncc(-c3cc[nH]c(=O)c3)n3ncnc23)cc1 [Compound 20, 4-(8-(4-((1S,4S)-5-isopropyl-2,5-diazabicyclo[2.2.1]heptan-2-yl)phenylamino)-[1,2,4]triazolo[1,5-a]pyrazin-5-yl)pyridin-2(1H)-one] | > 1000
11 | CCOc1cc(-c2cnc(Nc3ccc(N4C[C@@H]5C[C@H]4CN5C(C)C)cc3)c3nccn23)ccn1 [Compound 22, 5-(2-ethoxypyridin-4-yl)-N-(4-((1S,4S)-5-isopropyl-2,5-diazabicyclo[2.2.1]heptan-2-yl)phenyl)imidazo[1,2-a]pyrazin-8-amine] | > 1000
12 | CC(C)N1C[C@@H]2C[C@H]1CN2c1ccc(Nc2ncc(-c3cc[nH]c(=O)c3)n3ccnc23)cc1 [Compound 8, 4-{8-(4-((1S,4S)-5-isopropyl-2,5-diazabicyclo[2.2.1]heptan-2-yl)phenyl-amino)imidazo[1,2-a]pyrazin-5-yl}-1H-pyridin-2-one] | 101 to 500
13 | CC(C)N1CC2CCC(C1)N2c1ccc(Nc2ncc(-c3coc(C(N)=O)c3)n3ccnc23)cc1 [Compound 11, 4-{8-(4-(3-isopropyl-3,8-diazabicyclo[3.2.1]octan-8-yl)phenylamino)-imidazo[1,2-a]pyrazin-5-yl}-furan-2-carboxamide] | 101 to 500
14 | CC(C)N1C2CCC1CN(c1ccc(Nc3ncc(-c4coc(C(N)=O)c4)n4ncnc34)cc1)C2 [Compound 12, 4-{8-(4-(8-isopropyl-3,8-diazabicyclo[3.2.1]octan-3-yl)phenylamino)[1,2,4]-triazolo[1,5-a]pyrazin-5-yl}-furan-2-carboxamide] | 0.01 to 100
15 | CC(C)N1C[C@@H]2C[C@H]1CN2c1cccc(Nc2ncc(-c3coc(C(N)=O)c3)n3ncnc23)c1 [Compound 24, 4-(8-(3-((1S,4S)-5-isopropyl-2,5-diazabicyclo[2.2.1]heptan-2-yl)phenylamino)-[1,2,4]triazolo[1,5-a]pyrazin-5-yl)furan-2-carboxamide] | 0.01 to 100
16 | CC(C)N1C[C@@H]2C[C@H]1CN2c1cccc(Nc2ncc(-c3coc(C(N)=O)c3)n3ccnc23)c1 [Compound 25, 4-(8-(3-((1S,4S)-5-isopropyl-2,5-diazabicyclo[2.2.1]heptan-2-yl)phenylamino)imidazo[1,2-a]pyrazin-5-yl)furan-2-carboxamide] | 101 to 500
17 | CC(C)N1C[C@@H]2C[C@H]1CN2c1ccc(Nc2ncc(-c3coc(C(N)=O)c3)n3ccnc23)cc1 [Compound 4, 4-{8-[4-((1S,4S)-5-Isopropyl-2,5-diaza-bicyclo[2.2.1]hept-2-yl)-phenylamino]-imidazo[1,2-a]pyrazin-5-yl}-furan-2-carboxamide] | 101 to 500
18 | CC(C)N1C[C@@H]2C[C@H]1CN2c1cccc(Nc2ncc(-c3ccc4c(c3)CNC4=O)n3ncnc23)c1 [Compound 26, 5-(8-(3-((1S,4S)-5-isopropyl-2,5-diazabicyclo[2.2.1]heptan-2-yl)phenylamino)-[1,2,4]triazolo[1,5-a]pyrazin-5-yl)isoindolin-1-one] | 101 to 500
19 | CC(C)(C)N1C[C@@H]2C[C@H]1CN2c1ccc(Nc2ncc(-c3cc(C(N)=O)n[nH]3)n3ncnc23)cc1 [Compound 17, 5-{8-(4-((1S,4S)-5-tert-butyl-2,5-diazabicyclo[2.2.1]heptan-2-yl)phenyl-amino)-[1,2,4]triazolo[1,5-a]pyrazin-5-yl}-1H-pyrazole-3-carboxylic acid amide] | 101 to 500
20 | CC(C)(C)N1C[C@@H]2C[C@H]1CN2c1ccc(Nc2ncc(-c3coc(C(N)=O)c3)n3ncnc23)cc1 [Compound 3, 4-{8-[4-((1S,4S)-5-tert-Butyl-2,5-diaza-bicyclo[2.2.1]hept-2-yl)-phenylamino]-[1,2,4]triazolo[1,5-a]pyrazin-5-yl}-furan-2-carboxamide] | 0.01 to 100
21 | CC(C)(C)N1C[C@@H]2C[C@H]1CN2c1ccc(Nc2ncc(-c3coc(C(N)=O)c3)n3ccnc23)cc1 [Compound 6] | 101 to 500
22 | CC(C)N1C[C@@H]2C[C@H]1CN2c1ccc(Nc2ncc(-c3coc(C(N)=O)c3)n3ncnc23)cc1 [Compound 2, 4-{8-[4-((1S,4S)-5-Isopropyl-2,5-diaza-bicyclo[2.2.1]hept-2-yl)-phenylamino]-[1,2,4]triazolo[1,5-a]pyrazin-5-yl}-furan-2-carboxamide] | 0.01 to 100
